Data reported in patent US10610487B2, “Salts of active ingredients with polymeric counterions” (BASF SE, priority 2015, dated 2020).
In brackets after ≈: the same amount, converted by molar mass. Read-outs that look alike come from different tables or passages of the source.

Key:
[1] = CD water, 100 mg haloperidol per 250 ml, hard gelatine capsule
[2] = physchem; details: thermodynamic from solid

| Release of haloperidol ([1]; 0 min) | Release of haloperidol ([1]; 2 min) | Release of haloperidol ([1]; 4 min) | Release of haloperidol ([1]; 6 min) | Release of haloperidol ([1]; 8 min) | Release of haloperidol ([1]; 10 min) | Release of haloperidol ([1]; 30 min) | Release of haloperidol ([1]; 60 min) | Release of haloperidol ([1]; 120 min) | solubility thermodynamic at 72 h ([2]; simulated gastric fluid) | SMILES | solubility thermodynamic at 72 h ([2]; water) |
| --- | --- | --- | --- | --- | --- | --- | --- | --- | --- | --- | --- |
| 0.0% | 0.1% | 0.2% | 0.3% | 0.4% | 0.6% | 1.5% | 1.8% | 2.3% | 600 µg/mL (≈ 1600 µM) | O=C(CCCN1CCC(O)(c2ccc(Cl)cc2)CC1)c1ccc(F)cc1 [Haloperidol, haloperidol] | 2.6 µg/mL (≈ 6.92 µM) |
| – | – | – | – | – | – | – | – | – | – | CN(C)C(=O)C(CCN1CCC(O)(c2ccc(Cl)cc2)CC1)(c1ccccc1)c1ccccc1 [Loperamide, loperamide] | 72.3 µg/mL (≈ 152 µM) |
